Laboratory results as given in article PMC4894402, “Characterization of the honeybee AmNaV1 channel and tools to assess the toxicity of insecticides” (Scientific Reports, 2015).

Target: T1, AmNaV1 (Apis mellifera NaV1 voltage-gated sodium channel) (Apis mellifera, UniProt C9D7C5)
T1 construct: gene PARA; AmNaV1 channel expressed in Xenopus oocytes; with TipE regulatory subunit (honeybee)
Assay: two-microelectrode voltage-clamp in Xenopus oocytes, tail current dose-response
Format: cell-based

T1 sequence (C9D7C5 1-2044): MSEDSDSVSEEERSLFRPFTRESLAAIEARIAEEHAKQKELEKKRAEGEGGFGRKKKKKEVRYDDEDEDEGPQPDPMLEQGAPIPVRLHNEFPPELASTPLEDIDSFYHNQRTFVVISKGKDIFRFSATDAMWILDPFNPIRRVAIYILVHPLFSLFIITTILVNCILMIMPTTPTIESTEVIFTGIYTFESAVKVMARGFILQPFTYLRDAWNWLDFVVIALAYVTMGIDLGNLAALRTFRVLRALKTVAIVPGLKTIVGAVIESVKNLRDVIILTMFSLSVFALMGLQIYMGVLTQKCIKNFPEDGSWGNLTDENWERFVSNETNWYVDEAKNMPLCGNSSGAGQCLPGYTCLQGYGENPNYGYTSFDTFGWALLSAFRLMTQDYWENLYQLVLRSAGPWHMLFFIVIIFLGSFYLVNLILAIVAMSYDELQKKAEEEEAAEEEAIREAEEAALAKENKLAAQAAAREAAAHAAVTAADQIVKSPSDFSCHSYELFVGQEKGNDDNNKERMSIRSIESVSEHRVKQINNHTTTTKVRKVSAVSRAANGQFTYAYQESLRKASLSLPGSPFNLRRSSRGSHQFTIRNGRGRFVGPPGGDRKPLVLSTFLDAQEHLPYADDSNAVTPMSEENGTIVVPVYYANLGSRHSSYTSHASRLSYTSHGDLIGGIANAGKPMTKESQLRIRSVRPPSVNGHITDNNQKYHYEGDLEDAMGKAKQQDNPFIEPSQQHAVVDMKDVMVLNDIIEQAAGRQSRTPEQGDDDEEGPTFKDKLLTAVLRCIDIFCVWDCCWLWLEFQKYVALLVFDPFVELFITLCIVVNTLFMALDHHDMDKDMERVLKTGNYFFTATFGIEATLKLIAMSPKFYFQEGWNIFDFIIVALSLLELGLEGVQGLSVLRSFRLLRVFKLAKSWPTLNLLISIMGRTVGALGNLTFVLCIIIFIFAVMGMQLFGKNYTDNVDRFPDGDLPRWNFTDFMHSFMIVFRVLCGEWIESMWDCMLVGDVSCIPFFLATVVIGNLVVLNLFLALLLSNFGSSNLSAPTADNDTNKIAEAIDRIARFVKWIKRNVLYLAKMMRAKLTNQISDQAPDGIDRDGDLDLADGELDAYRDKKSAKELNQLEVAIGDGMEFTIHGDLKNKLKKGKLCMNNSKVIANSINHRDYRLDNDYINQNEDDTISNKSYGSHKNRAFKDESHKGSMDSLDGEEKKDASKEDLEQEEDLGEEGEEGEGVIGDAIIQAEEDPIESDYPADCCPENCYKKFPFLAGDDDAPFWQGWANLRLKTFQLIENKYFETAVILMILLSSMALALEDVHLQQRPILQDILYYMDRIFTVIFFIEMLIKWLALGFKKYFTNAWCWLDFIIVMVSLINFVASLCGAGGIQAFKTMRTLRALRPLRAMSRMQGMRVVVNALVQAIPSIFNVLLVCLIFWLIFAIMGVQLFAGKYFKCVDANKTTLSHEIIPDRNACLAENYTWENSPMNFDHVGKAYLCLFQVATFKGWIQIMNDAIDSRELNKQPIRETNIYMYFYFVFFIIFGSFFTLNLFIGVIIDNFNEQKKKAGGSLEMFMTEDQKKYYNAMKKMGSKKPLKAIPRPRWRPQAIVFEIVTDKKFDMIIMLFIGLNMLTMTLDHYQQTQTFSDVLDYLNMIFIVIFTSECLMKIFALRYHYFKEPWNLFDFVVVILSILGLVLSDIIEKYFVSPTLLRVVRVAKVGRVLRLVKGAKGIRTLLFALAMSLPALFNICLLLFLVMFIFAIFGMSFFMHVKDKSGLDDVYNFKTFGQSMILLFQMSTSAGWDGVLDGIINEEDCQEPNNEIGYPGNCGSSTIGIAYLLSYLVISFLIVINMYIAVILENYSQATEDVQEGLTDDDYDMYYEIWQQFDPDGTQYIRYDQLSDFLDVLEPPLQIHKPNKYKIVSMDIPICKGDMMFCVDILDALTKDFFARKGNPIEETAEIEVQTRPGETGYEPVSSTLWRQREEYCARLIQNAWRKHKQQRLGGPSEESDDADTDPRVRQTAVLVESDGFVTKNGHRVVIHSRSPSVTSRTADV
T1 sequence (A0A120HXK1 1-238 partner): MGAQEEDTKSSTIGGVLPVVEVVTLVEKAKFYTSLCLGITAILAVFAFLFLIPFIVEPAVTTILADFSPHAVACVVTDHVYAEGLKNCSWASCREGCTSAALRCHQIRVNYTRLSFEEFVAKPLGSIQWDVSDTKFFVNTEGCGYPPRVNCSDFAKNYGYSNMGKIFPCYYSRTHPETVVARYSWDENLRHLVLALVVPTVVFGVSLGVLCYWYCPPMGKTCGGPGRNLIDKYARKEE

## CC(C)C(C(=O)OC(C#N)c1cccc(Oc2ccccc2)c1)c1ccc(Cl)cc1 (stereo not shown) [fenvalerate]
  EC50: 290 nM
